The results in this text go back to patent publication US20250230165A1, “HETEROCYCLIC COMPOUNDS FOR USE IN THE TREATMENT OF CANCER” (ARTIOS PHARMA LIMITED, priority 2021, published 2025).

This experiment addresses T1, Human Polθ polymerase domain (aa1820-2590) (Homo sapiens, UniProt O75417).
T1 construct: Human Polθ polymerase domain (aa1820-2590) was expressed in E. coli; made in house; host or cells: E. coli
T1 sequence (O75417 1820-2590): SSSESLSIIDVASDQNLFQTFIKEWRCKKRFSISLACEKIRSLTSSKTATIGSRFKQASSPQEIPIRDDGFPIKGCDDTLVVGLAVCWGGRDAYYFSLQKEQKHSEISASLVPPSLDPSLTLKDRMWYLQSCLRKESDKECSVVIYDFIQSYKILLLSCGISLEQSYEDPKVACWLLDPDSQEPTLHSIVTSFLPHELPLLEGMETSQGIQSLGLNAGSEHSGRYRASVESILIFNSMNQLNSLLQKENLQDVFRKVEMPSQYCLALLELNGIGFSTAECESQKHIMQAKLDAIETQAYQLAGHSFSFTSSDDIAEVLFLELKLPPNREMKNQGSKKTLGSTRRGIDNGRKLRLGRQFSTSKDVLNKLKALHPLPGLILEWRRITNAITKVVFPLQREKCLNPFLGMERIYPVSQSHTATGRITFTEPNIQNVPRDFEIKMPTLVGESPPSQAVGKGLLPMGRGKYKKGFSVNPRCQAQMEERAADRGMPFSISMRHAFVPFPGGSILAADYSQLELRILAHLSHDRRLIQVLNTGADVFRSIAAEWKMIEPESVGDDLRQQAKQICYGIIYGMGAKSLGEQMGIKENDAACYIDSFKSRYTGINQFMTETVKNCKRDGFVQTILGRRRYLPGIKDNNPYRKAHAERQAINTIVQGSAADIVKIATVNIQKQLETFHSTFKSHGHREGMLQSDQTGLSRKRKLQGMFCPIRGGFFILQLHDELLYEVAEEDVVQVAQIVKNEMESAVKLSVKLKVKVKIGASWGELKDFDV
The experiment in a line: Polθ Polymerase Domain Kinact/KI Assay (PicoGreen). The note with it: 0.8 nM Polθ, 100 nM DNA substrate, kobs vs [I] fit for 2-step covalent inhibitor. The class given is biochemical. In short, it runs like this:
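Covalent Kinact/KI by PicoGreen DNA synthesis readout: E. coli-expressed Polθ polymerase domain (0.8 nM), 100 nM annealed DNA substrate, […], Tris pH 7.5 buffer with DTT, 1% DMSO; EDTA-stopped over 0–60 min time course. kobs from progress curves, then kobs vs [I] fit to two-step covalent model.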
Compound `C=CC(=O)N1C[C@@H]2CN(CCN3C[C@H]4CC(=O)N(c5cc(C(F)(F)F)cc(C)n5)[C@@H]4C(=O)N(C)c4cccc(F)c43)CCN2[C@H](C)C1` [Example 63a, (3aR,11aS)-5-(2-((6R/S,9aS/R)-8-acryloyl-6-methyloctahydro-2H-pyrazino[1,2-a]pyrazin-2-yl)ethyl)-6-fluoro-10-methyl-1-(6-methyl-4-(trifluoromethyl)pyridin-2-yl)-1,3a,4,5,10,11a-hexahydro-2H-benzo[b]pyrrolo[2,3-f][1,4]diazocine-2,11(3H)-dione] had a Kinact/Kl of 3.1e+06 M⁻¹ s⁻¹.

`C=CC(=O)N1CC(c2nc(CN3C[C@H]4CC(=O)N(c5cc(C(F)(F)F)cc(C)n5)[C@@H]4C(=O)N(C)c4cccc(F)c43)nn2C)C1` [Example 100, (3aR,11aS)-5-((5-(1-acryloylazetidin-3-yl)-1-methyl-1H-1,2,4-triazol-3-yl)methyl)-6-fluoro-10-methyl-1-(6-methyl-4-(trifluoromethyl)pyridin-2-yl)-1,3a,4,5,10,11a-hexahydro-2H-benzo[b]pyrrolo[2,3-f][1,4]diazocine-2,11(3H)-dione] displayed a Kinact/Kl of 100000 M⁻¹ s⁻¹.

`C=CC(=O)N1CC(N2CCN(CCN3C[C@H]4CC(=O)N(c5cc(C(F)(F)F)cc(C)n5)[C@@H]4C(=O)N(C)c4c(F)c(F)cc(Cl)c43)CC2)C1` [Example 20, (3aR,11aS)-5-(2-(4-(1-acryloylazetidin-3-yl)piperazin-1-yl)ethyl)-6-chloro-8,9-difluoro-10-methyl-1-(6-methyl-4-(trifluoromethyl)pyridin-2-yl)-1,3a,4,5,10,11a-hexahydro-2H-benzo[b]pyrrolo[2,3-f][1,4]diazocine-2,11(3H)-dione]: the Kinact/Kl was 1.12e+06 M⁻¹ s⁻¹.

The compound `C=CC(=O)N1Cc2ncc(CN3C[C@H]4CC(=O)N(c5cc(C(F)(F)F)cc(C)n5)[C@@H]4C(=O)N(C)c4cccc(Cl)c43)nc2C1` [Example 229, (3aR,11aS)-5-((6-acryloyl-6,7-dihydro-5H-pyrrolo[3,4-b]pyrazin-2-yl)methyl)-6-chloro-10-methyl-1-(6-methyl-4-(trifluoromethyl)pyridin-2-yl)-1,3a,4,5,10,11a-hexahydro-2H-benzo[b]pyrrolo[2,3-f][1,4]diazocine-2,11(3H)-dione] displayed a Kinact/Kl of 730000 M⁻¹ s⁻¹.

As to `C=CC(=O)N1Cc2nc(CN3C[C@H]4CC(=O)N(c5cc(C(F)(F)F)cc(C)n5)[C@@H]4C(=O)N(C)c4cccc(Cl)c43)ccc2C1CO` (stereo partly drawn) [Example 239, (3aR,11aS)-5-((6-acryloyl-5-(hydroxymethyl)-6,7-dihydro-5H-pyrrolo[3,4-b]pyridin-2-yl)methyl)-6-chloro-10-methyl-1-(6-methyl-4-(trifluoromethyl)pyridin-2-yl)-1,3a,4,5,10,11a-hexahydro-2H-benzo[b]pyrrolo[2,3-f][1,4]diazocine-2,11(3H)-dione], the Kinact/Kl amounted to 730000 M⁻¹ s⁻¹.

`Cc1cc(C(F)(F)F)cc(N2C(=O)C[C@@H]3CN(Cc4ccc5c(c4)CN(C(=O)/C=C/CN(C)C)C5)c4c(C)cccc4N(C)C(=O)[C@H]32)n1` [Example 176, (3aR,11aS)-5-((2-((E)-4-(dimethyl-amino)but-2-enoyl)isoindolin-5-yl)methyl)-6,10-dimethyl-1-(6-methyl-4-(tri-fluoromethyl)pyr-idin-2-yl)-1,3a,4,5,10,11a-hexa-hydro-2H-benzo [b]pyrrolo[2,3-f] [1,4]diazocine-2,11(3H)-dione] yielded a Kinact/Kl of 1.37e+06 M⁻¹ s⁻¹.

In turn, `C=CC(=O)N1CC2(CN(CCN3C[C@H]4CC(=O)N(c5cc(C(F)(F)F)cc(C)n5)[C@@H]4C(=O)N(C)c4cccc(F)c43)CC(=O)N2)C1` [Example 104, (3aR,11aS)-5-(2-(2-acryloyl-6-oxo-2,5,8-triazaspiro[3.5]nonan-8-yl)ethyl)-6-fluoro-10-methyl-1-(6-methyl-4-(trifluoromethyl)pyridin-2-yl)-1,3a,4,5,10,11a-hexahydro-2H-benzo[b]pyrrolo[2,3-f][1,4]diazocine-2,11(3H)-dione] came in with a Kinact/Kl of 1.86e+06 M⁻¹ s⁻¹.

The compound `C=CC(=O)N1CC2(CN(CCN3C[C@H]4CC(=O)N(c5cc(C(F)(F)F)cc(C)n5)[C@@H]4C(=O)N(C)c4cccc(C)c43)C[C@H]2C#N)C1` (racemic) [Example 118b, (S/R)-2-acryloyl-6-(2-((3aR,11aS)-6,10-dimethyl-1-(6-methyl-4-(trifluoromethyl)pyridin-2-yl)-2,11-dioxo-1,2,3,3a,4,10,11,11a-octahydro-5H-benzo[b]pyrrolo[2,3-f][1,4]diazocin-5-yl)ethyl)-2,6-diazaspiro[3.4]octane-8-carbonitrile] had a Kinact/Kl of 3.36e+06 M⁻¹ s⁻¹.

In turn, `C=CC(=O)N1CC[C@]12CCN(CCN1C[C@H]3CC(=O)N(c4cc(C(F)(F)F)cc(C)n4)[C@@H]3C(=O)N(C)c3cccc(F)c31)C2` (racemic) [Example 21a, (3aR,11aS)-5-(2-((S/R)-1-acryloyl-1,6-diazaspiro[3.4]octan-6-yl)ethyl)-6-fluoro-10-methyl-1-(6-methyl-4-(trifluoromethyl)pyridin-2-yl)-1,3a,4,5,10,11a-hexahydro-2H-benzo[b]pyrrolo[2,3-f][1,4]diazocine-2, 11(3H)-dione] yielded a Kinact/Kl of 54000 M⁻¹ s⁻¹.

In turn, `C=CC(=O)N1Cc2cc(CN3C[C@H]4CC(=O)N(c5cc(C(F)(F)F)cc(C)n5)[C@@H]4C(=O)N(C)c4cccc(Cl)c43)cnc2[C@H]1CO` (racemic) [Example 231, (3aR,11aS)-5-(((S/R)-6-acryloyl-7-(hydroxymethyl)-6,7-dihydro-5H-pyrrolo[3,4-b]pyridin-3-yl)methyl)-6-chloro-10-methyl-1-(6-methyl-4-(trifluoromethyl)pyridin-2-yl)-1,3a,4,5,10,11a-hexahydro-2H-benzo[b]pyrrolo[2,3-f][1,4]diazocine-2,11(3H)-dione] registered a Kinact/Kl of 860000 M⁻¹ s⁻¹.

On to `Cc1cc(C(F)(F)F)cc(N2C(=O)C[C@@H]3CN(CCCCNC(=O)/C=C/CN(C)C)c4c(Cl)cccc4N(C)C(=O)[C@H]32)n1` [Example 252, (E)-N-(4-((3aR,11aS)-6-chloro-10-methyl-1-(6-methyl-4-(trifluoromethyl)pyridin-2-yl)-2,11-dioxo-1,2,3,3a,4,10,11,11a-octahydro-5H-benzo[b]pyrrolo[2,3-f][1,4]diazocin-5-yl)butyl)-4-(dimethylamino)but-2-enamide], for which the Kinact/Kl turned out to be 1.19e+06 M⁻¹ s⁻¹.

Compound `C=CC(=O)N1CCn2cc(CN3C[C@H]4CC(=O)N(c5cc(C(F)(F)F)cc(C)n5)[C@@H]4C(=O)N(C)c4cccc(C)c43)nc2C1` [Example 203, (3aR,11aS)-5-((7-acryloyl-5,6,7,8-tetrahydroimidazo [1,2-a]pyrazin-2-yl)methyl)-6,10-dimethyl-1-(6-methyl-4-(trifluoromethyl)pyridin-2-yl)-1,3a,4,5,10,11a-hexahydro-2H-benzo[b]pyrrolo [2,3-f][1,4]diazocine-2,11(3H)-dione] showed a Kinact/Kl of 4.32e+06 M⁻¹ s⁻¹.

In turn, `C=C(CN(C)C)C(=O)N1CC(OCCCN2C[C@H]3CC(=O)N(c4cc(C(F)(F)F)cc(C)n4)[C@@H]3C(=O)N(C)c3cccc(C)c32)C1` [Example 77, (3aR,11aS)-5-(3-((1-(2-((dimethylamino)methyl)acryloyl)azetidin-3-yl)oxy)propyl)-6,10-dimethyl-1-(6-methyl-4-(trifluoromethyl)pyridin-2-yl)-1,3a,4,5,10,11a-hexahydro-2H-benzo[b]pyrrolo[2,3-f][1,4]diazocine-2,11(3H)-dione] came in with a Kinact/Kl of 2.55e+06 M⁻¹ s⁻¹.
